In patent US20210038579A1, “Treatment Of Patients With Classic Fabry Disease” (Amicus Therapeutics, Inc., priority 2018, published 2021):
Substitutions are numbered along the chain they refer to.

How the values were obtained:
Assay in all cases: HEK assay: α-Gal A activity in HEK-293 cell lysate with migalastat
Type in all cases: cell-based
[1] = molecular target: T1, α-Gal A mutant form p.Asp33Gly (c.98 A > G) (Homo sapiens, UniProt P06280, D33G)
T1 construct: expressed in transfected cells; host or cells: HEK-293
T1 sequence (P06280 32-429 D33G): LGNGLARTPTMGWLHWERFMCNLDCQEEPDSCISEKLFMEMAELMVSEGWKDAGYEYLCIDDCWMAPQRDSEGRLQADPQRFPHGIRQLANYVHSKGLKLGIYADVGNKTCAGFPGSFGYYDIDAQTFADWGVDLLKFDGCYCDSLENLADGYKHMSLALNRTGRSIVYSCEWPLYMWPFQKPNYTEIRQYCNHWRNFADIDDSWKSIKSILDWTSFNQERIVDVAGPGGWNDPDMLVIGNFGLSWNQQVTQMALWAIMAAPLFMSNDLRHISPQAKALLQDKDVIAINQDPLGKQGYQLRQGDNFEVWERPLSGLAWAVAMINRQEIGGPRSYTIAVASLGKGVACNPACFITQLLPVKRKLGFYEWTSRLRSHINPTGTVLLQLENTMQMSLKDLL
Summary of the method: (§1)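 Each disease-causing α-Gal A variant, expressed transiently in HEK-293 cells, was treated plus or minus migalastat from 17 nM up to 1 mM during 4 to 5 days; lysates were assayed for α-Gal A using 4-MU-α-Gal fluorescence or western blotting.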

[2] = molecular target: T2, α-Gal A mutant form p.Gly258Arg (c.772 G > C) (Homo sapiens, UniProt P06280, G258R)
T2 construct: expressed in transfected cells; host or cells: HEK-293
T2 sequence (P06280 32-429 G258R): T1 sequence (P06280 32-429 D33G) with G2D, G227R
Summary of the method: as §1

[3] = molecular target: T3, α-Gal A mutant form p.Ile253Thr (c.758 T > C) (Homo sapiens, UniProt P06280, I253T)
T3 construct: expressed in transfected cells; host or cells: HEK-293
T3 sequence (P06280 32-429 I253T): T1 sequence (P06280 32-429 D33G) with G2D, I222T
Summary of the method: as §1

[4] = molecular target: T4, α-Gal A mutant form p.Leu36Trp (c.107 T > G) (Homo sapiens, UniProt P06280, L36W)
T4 construct: expressed in transfected cells; host or cells: HEK-293
T4 sequence (P06280 32-429 L36W): T1 sequence (P06280 32-429 D33G) with G2D, L5W
Summary of the method: as §1

[5] = molecular target: T5, α-Gal A mutant form p.Met284Thr (c.851 T > C) (Homo sapiens, UniProt P06280, M284T)
T5 construct: expressed in transfected cells; host or cells: HEK-293
T5 sequence (P06280 32-429 M284T): T1 sequence (P06280 32-429 D33G) with G2D, M253T
Summary of the method: as §1

[6] = +10 μM migalastat, HEK-293 cell lysate, mean ± SEM, n = 20
[7] = HEK293, 10 μM migalastat minus baseline, read-out: Absolute increase at 10 μM (% WT)

OC[C@H]1NC[C@H](O)[C@@H](O)[C@H]1O [migalastat]
α-Gal A activity at 10 μM (fold over baseline) ([1]; 10 μM migalastat): 2.42 fold over baseline | +Migalastat α-Gal A activity [1, 6]: 24033 ± 865 nmol/mg/h | +Migalastat α-Gal A activity % WT [1, 6]: 70.6 ± 2.4 % WT | activation at 10 µM [1, 7]: 41.3% | α-Gal A activity at 10 μM (fold over baseline) ([2]; 10 μM migalastat): 2.37 fold over baseline | +Migalastat α-Gal A activity [2, 6]: 22630 ± 801 nmol/mg/h | +Migalastat α-Gal A activity % WT [2, 6]: 78.1 ± 5.8 % WT | activation at 10 µM [2, 7]: 45.5% | α-Gal A activity at 10 μM (fold over baseline) ([3]; 10 μM migalastat): 2.07 fold over baseline | +Migalastat α-Gal A activity [3, 6]: 23417 ± 1077 nmol/mg/h | +Migalastat α-Gal A activity % WT [3, 6]: 80.2 ± 5.9 % WT | activation at 10 µM [3, 7]: 41.3% | α-Gal A activity at 10 μM (fold over baseline) ([4]; 10 μM migalastat): 21.49 fold over baseline | +Migalastat α-Gal A activity [4, 6]: 5182 ± 463 nmol/mg/h | +Migalastat α-Gal A activity % WT [4, 6]: 16.6 ± 2.1 % WT | activation at 10 µM [4, 7]: 15.9% | α-Gal A activity at 10 μM (fold over baseline) ([5]; 10 μM migalastat): 8.33 fold over baseline | +Migalastat α-Gal A activity [5, 6]: 5050 ± 268 nmol/mg/h | +Migalastat α-Gal A activity % WT [5, 6]: 14.3 ± 0.6 % WT | activation at 10 µM [5, 7]: 12.6%
